Assay results reported in patent US9409952B2, “Peptide-compound cyclization method” (Chugai Seiyaku Kabushiki Kaisha, priority 2011, dated 2016).
Read-outs that look alike come from different tables or passages of the source. Positions of bridges follow the written chain, without caps; N, C: chain ends. Non-standard residues stand in square brackets, D forms with d. Residues, ends and D or L forms follow the SMILES beside them. *: point of attachment. NMeF = CN[C@@H](Cc1ccccc1)C(=O)O; NMeI = CC[C@H](C)[C@H](NC)C(=O)O; NMeL = CN[C@@H](CC(C)C)C(=O)O; NMeV = CN[C@H](C(=O)O)C(C)C; NMeA = CN[C@@H](C)C(=O)O; Piperidide = C1CCN(*)CC1; Sar = CNCC(=O)O; tBu = CC(C)(C)*

Experiment: Metabolic stability in human hepatic microsome
Type: in vitro ADME
Settings: for microsomal CLint at 1 uM: human
[1] = microsomes, pH 7.4, Hepatic microsome CLhint (Human) In the presence of NADPH
[2] = microsomes, pH 7.4, CL NADPH(+)

Row | SMILES | Hepatic microsome CLhint (Human) In the absence of NADPH | microsomal CLint at 1 uM [2] | other results
1 | CC(C)C[C@H]1C(=O)N[C@@H](COC(C)(C)C)C(=O)N[C@H](C(=O)N2CCCCC2)CC(=O)N[C@@H](C)C(=O)N(C)[C@@H](C)C(=O)N(C)[C@@H](Cc2ccccc2)C(=O)N(C)[C@@H](CC(C)C)C(=O)N[C@@H]([C@@H](C)O)C(=O)N(C)CC(=O)N1C [Compound P-119, Ala-MeAla-MePhe-MeLeu-Thr-MeGly-MeLeu-Ser(tBu)-Asp-piperidine] (A[NMeA][NMeF][NMeL]T[Sar][NMeL]S(tBu)D-Piperidide; lactam N-9) | 5 ul/min/mg Protein | – | microsomal CLint at 1 uM [1]: 56 µL/min/mg
2 | CC(C)C[C@H]1C(=O)N[C@@H](COC(C)(C)C)C(=O)N[C@H](C(=O)N2CCCCC2)CC(=O)N(C)[C@@H](C)C(=O)N(C)[C@@H](C)C(=O)N(C)[C@@H](Cc2ccccc2)C(=O)N(C)[C@@H](CC(C)C)C(=O)N[C@@H]([C@@H](C)O)C(=O)N(C)CC(=O)N1C [Compound P-120, MeAla-MeAla-MePhe-MeLeu-Thr-MeGly-MeLeu-Ser(tBu)-Asp-piperidine] ([NMeA][NMeA][NMeF][NMeL]T[Sar][NMeL]S(tBu)D-Piperidide; lactam N-9) | 5 ul/min/mg Protein | – | –
3 | CC(C)C[C@H]1C(=O)N[C@@H](COC(C)(C)C)C(=O)N[C@H](C(=O)N2CCCCC2)CCC(=O)N[C@@H](C)C(=O)N(C)[C@@H](C)C(=O)N(C)[C@@H](Cc2ccccc2)C(=O)N(C)[C@@H](CC(C)C)C(=O)N[C@@H]([C@@H](C)O)C(=O)N(C)CC(=O)N1C [Compound P-121, Ala-MeAla-MePhe-MeLeu-Thr-MeGly-MeLeu-Ser(tBu)-Glu-piperidine] (A[NMeA][NMeF][NMeL]T[Sar][NMeL]S(tBu)E-Piperidide; lactam N-9) | 8 ul/min/mg Protein | – | Hepatic microsome CLhint (Human) In the presence of NADPH: 69 ul/min/mg Protein; microsomal CLint at 1 uM (liver microsomes, pH 7.4, Hepatic microsome CLhint (Human) In the presence of NADPH): 29 µL/min/mg
4 | CC(C)C[C@H]1C(=O)N[C@@H](COC(C)(C)C)C(=O)N[C@H](C(=O)N2CCCCC2)CCC(=O)N(C)[C@@H](C)C(=O)N(C)[C@@H](C)C(=O)N(C)[C@@H](Cc2ccccc2)C(=O)N(C)[C@@H](CC(C)C)C(=O)N[C@@H]([C@@H](C)O)C(=O)N(C)CC(=O)N1C [Compound P-122, MeAla-MeAla-MePhe-MeLeu-Thr-MeGly-MeLeu-Ser(tBu)-Glu-piperidine] ([NMeA][NMeA][NMeF][NMeL]T[Sar][NMeL]S(tBu)E-Piperidide; lactam N-9) | 1 ul/min/mg Protein | – | microsomal CLint at 1 uM [1]: 11 µL/min/mg
5 | CC[C@H](C)[C@H]1C(=O)N[C@H](C(=O)N2CCCCC2)CC(=O)N[C@@H](C)C(=O)N(C)[C@@H](Cc2ccccc2)C(=O)N(C)[C@@H](CC(C)C)C(=O)N[C@@H]([C@@H](C)O)C(=O)N(C)CC(=O)N(C)[C@@H](CC(C)C)C(=O)N[C@@H](COC(C)(C)C)C(=O)N1C [Compound P-123, Ala-MePhe-MeLeu-Thr-MeGly-MeLeu-Ser(tBu)-MeIle-Asp-piperidine] (A[NMeF][NMeL]T[Sar][NMeL]S(tBu)[NMeI]D-Piperidide; lactam N-9) | 0 ul/min/mg Protein | – | microsomal CLint at 1 uM [1]: 106 µL/min/mg
6 | CC[C@H](C)[C@H]1C(=O)N[C@H](C(=O)N2CCCCC2)CC(=O)N[C@@H](C)C(=O)N(C)[C@@H](C)C(=O)N(C)[C@@H](Cc2ccccc2)C(=O)N(C)[C@@H](CC(C)C)C(=O)N[C@@H]([C@@H](C)O)C(=O)N(C)CC(=O)N(C)[C@@H](CC(C)C)C(=O)N[C@@H](COC(C)(C)C)C(=O)N1C [Compound P-125, Ala-MeAla-MePhe-MeLeu-Thr-MeGly-MeLeu-Ser(tBu)-MeIle-Asp-piperidine] (A[NMeA][NMeF][NMeL]T[Sar][NMeL]S(tBu)[NMeI]D-Piperidide; lactam N-10) | 1 ul/min/mg Protein | – | Hepatic microsome CLhint (Human) In the presence of NADPH (Table 10, with NADPH): 35 ul/min/mg Protein
7 | CC[C@H](C)[C@H]1C(=O)N[C@@H](Cc2ccccc2)C(=O)N(C)[C@@H](Cc2ccccc2)C(=O)N[C@@H]([C@@H](C)O)C(=O)N2CCC[C@H]2C(=O)N[C@@H](CC(C)C)C(=O)N[C@H](C(=O)N2CCCCC2)CC(=O)N[C@@H](C)C(=O)N[C@@H](C(C)C)C(=O)N(C)CC(=O)N[C@@H](CC(C)C)C(=O)N(C)[C@@H](CC(C)C)C(=O)N[C@@H](C)C(=O)N1C [DP-1] (AV[Sar]L[NMeL]A[NMeI]F[NMeF]TPLD-Piperidide; lactam N-13) | – | 27 µL/min/mg | –
8 | CC[C@H](C)[C@H]1C(=O)N[C@@H](C)C(=O)N(C)[C@@H](Cc2ccccc2)C(=O)N(C)[C@@H](Cc2ccccc2)C(=O)N[C@@H]([C@@H](C)O)C(=O)N(C)[C@@H](CC(C)C)C(=O)N2CCC[C@H]2C(=O)N[C@H](C(=O)N2CCCCC2)CC(=O)N[C@@H](C)C(=O)N[C@@H](C(C)C)C(=O)N(C)[C@@H](CC(C)C)C(=O)N(C)CC(=O)N(C)[C@@H](CC(C)C)C(=O)N1C [DP-2] (AV[NMeL][Sar][NMeL][NMeI]A[NMeF][NMeF]T[NMeL]PD-Piperidide; lactam N-13) | – | 7 µL/min/mg | –
9 | CC[C@H](C)[C@H]1C(=O)N[C@@H](C)C(=O)N[C@H](C(=O)N2CCCCC2)CC(=O)N[C@@H](C)C(=O)N[C@@H]([C@@H](C)O)C(=O)N(C)[C@@H](CC(C)C)C(=O)N[C@@H](CC(C)C)C(=O)N[C@@H](Cc2ccccc2)C(=O)N2CCC[C@H]2C(=O)N[C@@H](Cc2ccccc2)C(=O)N[C@@H](C(C)C)C(=O)N(C)CC(=O)N1C [DP-6] (AT[NMeL]LFPFV[Sar][NMeI]AD-Piperidide; lactam N-12) | – | 35 µL/min/mg | –
10 | CC[C@H](C)[C@H]1C(=O)N(C)[C@@H](CC(C)C)C(=O)NCC(=O)N(C)[C@@H](C)C(=O)N[C@@H](Cc2ccccc2)C(=O)N[C@@H]([C@@H](C)O)C(=O)N(C)[C@@H](CC(C)C)C(=O)N[C@@H](Cc2ccccc2)C(=O)N(C)[C@@H](C(C)C)C(=O)N[C@H](C(=O)N2CCCCC2)CC(=O)N[C@@H](C)C(=O)N[C@@H](CC(C)C)C(=O)N1C [DP-8] (AL[NMeI][NMeL]G[NMeA]FT[NMeL]F[NMeV]D-Piperidide; lactam N-12) | – | 36 µL/min/mg | –
11 | CC[C@H](C)[C@@H]1NC(=O)[C@H](C)NC(=O)C[C@@H](C(=O)N2CCCCC2)NC(=O)[C@H](CC(C)C)N(C)C(=O)[C@H](CC(C)C)N(C)C(=O)[C@H](C(C)C)NC(=O)[C@H](C)NC(=O)[C@H](Cc2ccccc2)N(C)C(=O)[C@H](Cc2ccccc2)N(C)C(=O)[C@H]([C@@H](C)O)NC(=O)[C@H](CC(C)C)N(C)C(=O)[C@@H]2CCCN2C1=O [DP-10] (AIP[NMeL]T[NMeF][NMeF]AV[NMeL][NMeL]D-Piperidide; lactam N-12) | – | 14 µL/min/mg | –
12 | CC[C@H](C)[C@H]1C(=O)N(C)[C@@H](C)C(=O)N[C@H](C(=O)N2CCCCC2)CC(=O)N[C@@H](C)C(=O)N[C@@H]([C@@H](C)O)C(=O)N(C)[C@@H](Cc2ccccc2)C(=O)N(C)[C@@H](CC(C)C)C(=O)N[C@@H](C(C)C)C(=O)N2CCC[C@H]2C(=O)N(C)[C@@H](Cc2ccccc2)C(=O)N[C@@H](CC(C)C)C(=O)N(C)CC(=O)N1C [DP-11] (AT[NMeF][NMeL]VP[NMeF]L[Sar][NMeI][NMeA]D-Piperidide; lactam N-12) | – | 67 µL/min/mg | –
13 | CC[C@H](C)[C@@H]1NC(=O)[C@H](Cc2ccccc2)N(C)C(=O)[C@H](Cc2ccccc2)N(C)C(=O)[C@H](CC(C)C)N(C)C(=O)[C@H](CC(C)C)NC(=O)[C@H](CC(C)C)N(C)C(=O)[C@H](C)N(C)C(=O)[C@H]([C@@H](C)O)NC(=O)[C@H](C)NC(=O)C[C@@H](C(=O)N2CCCCC2)NC(=O)[C@H](C(C)C)N(C)C(=O)[C@@H]2CCCN2C1=O [DP-12] (AT[NMeA][NMeL]L[NMeL][NMeF][NMeF]IP[NMeV]D-Piperidide; lactam N-12) | – | 32 µL/min/mg | –
14 | CC[C@H](C)[C@@H]1NC(=O)[C@H](C)NC(=O)C[C@@H](C(=O)N2CCCCC2)NC(=O)[C@H](Cc2ccccc2)NC(=O)[C@H](C(C)C)NC(=O)[C@H](CC(C)C)NC(=O)[C@H](C)NC(=O)[C@H](Cc2ccccc2)N(C)C(=O)[C@H]([C@@H](C)O)NC(=O)[C@H](CC(C)C)NC(=O)[C@H](CC(C)C)N(C)C1=O [DP-13] (AI[NMeL]LT[NMeF]ALVFD-Piperidide; lactam N-11) | – | 66 µL/min/mg | –
15 | CC[C@H](C)[C@@H]1NC(=O)[C@H](Cc2ccccc2)N(C)C(=O)[C@H](Cc2ccccc2)NC(=O)[C@H](C(C)C)N(C)C(=O)[C@H](CC(C)C)N(C)C(=O)[C@H](CC(C)C)NC(=O)[C@H](C)NC(=O)C[C@@H](C(=O)N2CCCCC2)NC(=O)[C@H]([C@@H](C)O)NC(=O)CNC(=O)[C@@H]2CCCN2C1=O [DP-14] (AL[NMeL][NMeV]F[NMeF]IPGTD-Piperidide; lactam N-11) | – | 57 µL/min/mg | –
16 | CC[C@H](C)[C@H]1C(=O)N2CCC[C@H]2C(=O)N(C)CC(=O)N[C@@H]([C@@H](C)O)C(=O)N[C@H](C(=O)N2CCCCC2)CC(=O)N[C@@H](C)C(=O)N[C@@H](C(C)C)C(=O)N(C)[C@@H](CC(C)C)C(=O)N(C)[C@@H](CC(C)C)C(=O)N(C)[C@@H](Cc2ccccc2)C(=O)N[C@@H](Cc2ccccc2)C(=O)N1C [DP-15] (AV[NMeL][NMeL][NMeF]F[NMeI]P[Sar]TD-Piperidide; lactam N-11) | – | 34 µL/min/mg | –
17 | CC[C@H](C)[C@@H]1NC(=O)[C@H](Cc2ccccc2)NC(=O)[C@H](C)NC(=O)C[C@@H](C(=O)N2CCCCC2)NC(=O)[C@H](CC(C)C)NC(=O)[C@H](CC(C)C)NC(=O)[C@H](C(C)C)NC(=O)[C@H](C)N(C)C(=O)[C@H](Cc2ccccc2)NC(=O)CNC(=O)[C@H]([C@@H](C)O)NC(=O)[C@H](CC(C)C)NC(=O)[C@@H]2CCCN2C1=O [DP-19] (AFIPLTGF[NMeA]VLLD-Piperidide; lactam N-13) | – | 80 µL/min/mg | –
18 | CC[C@H](C)[C@@H]1NC(=O)[C@H](C)NC(=O)[C@H](CC(C)C)N(C)C(=O)[C@H](CC(C)C)NC(=O)[C@H](Cc2ccccc2)NC(=O)[C@H](C(C)C)NC(=O)[C@@H]2CCCN2C(=O)[C@H](CC(C)C)NC(=O)[C@H](Cc2ccccc2)N(C)C(=O)[C@H]([C@@H](C)O)NC(=O)CNC(=O)[C@H](C)NC(=O)C[C@@H](C(=O)N2CCCCC2)NC1=O [DP-20] (AGT[NMeF]LPVFL[NMeL]AID-Piperidide; lactam N-13) | – | 97 µL/min/mg | –
